Measurements as given in PMC4893628, “Chalcone-based Selective Inhibitors of a C4 Plant Key Enzyme as Novel Potential Herbicides” (Scientific Reports, 2016).
Read-outs that look alike come from different tables or passages of the source.

Tests used:
[1] = molecular target: T1, wild-type C4 PEPC from F. trinervia (Flaveria trinervia, UniProt P30694); test: Isothermal titration calorimetry, wild-type C4 PEPC; assay type: binding
T1 construct: the full-length ppcA gene of PEPC from F. trinervia (EMBL-Bank X61304); made in house; host or cells: Escherichia coli BL21(DE3)
T1 sequence (P30694 1-966): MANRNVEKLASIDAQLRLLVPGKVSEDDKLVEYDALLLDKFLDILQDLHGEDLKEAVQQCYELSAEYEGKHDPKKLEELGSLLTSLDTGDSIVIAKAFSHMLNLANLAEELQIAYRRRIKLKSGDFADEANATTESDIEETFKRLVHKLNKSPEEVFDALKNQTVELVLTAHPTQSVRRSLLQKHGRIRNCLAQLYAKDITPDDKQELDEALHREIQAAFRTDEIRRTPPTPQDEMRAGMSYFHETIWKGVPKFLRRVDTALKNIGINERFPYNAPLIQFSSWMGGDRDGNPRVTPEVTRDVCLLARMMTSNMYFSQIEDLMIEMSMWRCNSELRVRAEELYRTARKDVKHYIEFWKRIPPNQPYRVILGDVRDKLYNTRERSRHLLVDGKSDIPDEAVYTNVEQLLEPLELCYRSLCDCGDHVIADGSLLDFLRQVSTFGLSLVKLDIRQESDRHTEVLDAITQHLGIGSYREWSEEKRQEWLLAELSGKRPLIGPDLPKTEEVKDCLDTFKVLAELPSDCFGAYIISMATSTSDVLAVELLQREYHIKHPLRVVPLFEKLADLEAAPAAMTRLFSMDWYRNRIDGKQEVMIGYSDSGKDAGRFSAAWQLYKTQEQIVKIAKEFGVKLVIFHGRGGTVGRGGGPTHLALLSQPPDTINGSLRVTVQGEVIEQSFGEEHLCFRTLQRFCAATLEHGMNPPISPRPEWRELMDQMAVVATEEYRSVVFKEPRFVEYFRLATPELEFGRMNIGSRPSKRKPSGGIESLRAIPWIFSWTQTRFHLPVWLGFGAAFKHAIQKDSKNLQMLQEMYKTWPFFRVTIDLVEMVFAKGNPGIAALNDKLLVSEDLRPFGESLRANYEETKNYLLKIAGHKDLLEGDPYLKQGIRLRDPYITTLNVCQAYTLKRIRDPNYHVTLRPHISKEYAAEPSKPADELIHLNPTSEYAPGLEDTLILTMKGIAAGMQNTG
Procedure: (§1) The binding affinities between small molecule compounds and PEPC enzymes were measured using a MicroCal iTC200 calorimeter (GE Healthcare). 18 injections (2 μl each) of 200 μM compound were injected into a sample cell containing 20 uM PEPC at 25 °C. The buffer of the compounds and the enzymes contained 50 mM Tris/HCl pH 7.5, 150 mM NaCl, 10 mM MgCl2. The data were analyzed with one-site-binding fitting using Origin software (MicroCal Inc.) to calculate the dissociation constant (Kd) of the small molecule inhibitors.

[2] = molecular target: C4 PEPC mutant G884R (Flaveria trinervia, UniProt P30694, G884R); test: Isothermal titration calorimetry, mutant G884R; assay type: binding
C4 PEPC mutant G884R, sequence (P30694 whole entry G884R): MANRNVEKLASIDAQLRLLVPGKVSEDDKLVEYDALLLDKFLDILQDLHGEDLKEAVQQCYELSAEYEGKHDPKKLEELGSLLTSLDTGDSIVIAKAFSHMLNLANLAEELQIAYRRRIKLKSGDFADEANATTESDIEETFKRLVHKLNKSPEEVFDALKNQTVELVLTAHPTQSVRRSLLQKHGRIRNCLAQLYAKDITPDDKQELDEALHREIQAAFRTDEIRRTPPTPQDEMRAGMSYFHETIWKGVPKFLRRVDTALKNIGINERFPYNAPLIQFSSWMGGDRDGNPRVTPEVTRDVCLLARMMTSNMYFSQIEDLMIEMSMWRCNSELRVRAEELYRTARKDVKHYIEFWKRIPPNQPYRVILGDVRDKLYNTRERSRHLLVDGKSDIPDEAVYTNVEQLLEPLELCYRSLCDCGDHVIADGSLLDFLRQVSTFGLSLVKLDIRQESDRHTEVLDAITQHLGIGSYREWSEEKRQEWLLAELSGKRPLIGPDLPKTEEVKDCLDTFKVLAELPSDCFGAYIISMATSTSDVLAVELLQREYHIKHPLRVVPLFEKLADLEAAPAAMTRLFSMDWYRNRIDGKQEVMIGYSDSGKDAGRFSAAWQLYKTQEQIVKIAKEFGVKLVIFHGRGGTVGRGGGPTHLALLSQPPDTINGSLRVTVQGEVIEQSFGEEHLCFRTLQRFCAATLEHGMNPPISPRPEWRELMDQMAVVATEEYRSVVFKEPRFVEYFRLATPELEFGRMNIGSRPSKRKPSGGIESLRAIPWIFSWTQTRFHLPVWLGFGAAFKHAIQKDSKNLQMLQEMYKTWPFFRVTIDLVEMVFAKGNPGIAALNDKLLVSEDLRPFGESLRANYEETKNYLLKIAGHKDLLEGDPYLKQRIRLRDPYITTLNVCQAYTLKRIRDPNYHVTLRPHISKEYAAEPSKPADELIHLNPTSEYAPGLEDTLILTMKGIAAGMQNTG
Procedure: as §1

[3] = test system: human breast cancer cells; design: method as in PMID 11720850; conditions: higher; cited from earlier work
[4] = test system: A. retroflexus; test: Leaf gas exchange measurements, A. retroflexus; assay type: in vivo, Amaranthus retroflexus
Procedure: (§2) CO2-response curves were obtained on A. retroflexus and B. napus using a LI-6400XT portable photosynthesis system equipped with a fluorescence head and a leaf chamber size of 2 cm^2 (LI-COR, Lincoln, NE, USA) at a photon flux density of 1500 μmol m^−2 s^−1 and at 25 °C leaf temperature. Plants were grown at the research greenhouse of the IBG-2 Institute of Plant Sciences at Forschungszentrum Jülich, Germany (50°55′20″N 06°21′30″E), at a day/night length of 16 h/8 h, at an average day/night temperature of 23 °C/17 °C, relative humidity of 55%, and light intensity of 170 PAR. Plants were treated as described above at the three-leaf stage. Measurements were performed on the third leaf before treatment and one day after treatment. Each treatment was repeated four times. Information on statistical analysis is given in the Supplementary Information.

[5] = test system: B. napus; test: Leaf gas exchange measurements, B. napus; assay type: in vivo, Brassica napus
Procedure: as §2

[6] = test system: A. retroflexus; test: Chlorophyll fluorescence measurements, A. retroflexus leaf discs; assay type: in vivo, Amaranthus retroflexus; conditions: 2 mM
Procedure: from a fixed distance at 90° view angle using the camera Canon EOS 70D equipped with a Canon EF 14 mm/2.8 L II USM lens. Leaf area of single leaves was measured using the ImageJ software31, by drawing the leaf contours using a drawing tablet (Cintiq 22HD, Wacom Europe GmbH, Krefeld, Germany). Conversion of pixel to cm was achieved by using a target of known size inside the image. Six days after the treatment, half of the plants were harvested. Leaf area was assessed using a leaf area meter (LI3100C Area Meter, LI-Cor, Lincoln, Nebraska, USA) and samples were oven-dried at 65°C for seven days to obtain dry weight . Thirteen days after the treatment, this procedure was repeated with the second half of plants.
Chlorophyll fluorescence measurements
For assessment of photosynthetic parameters, A. retroflexus plants were grown under the abovementioned conditions until the two-leaves growth stage. 6 mm leaf discs were cut out of the second leaf and immediately placed into 96-well-plates filled with 300 µL 0.125 % Hoagland’s solution with 1 mM MES-KOH (MES-monohydrate, Merck, Darmstadt, Germany) buffered to a pH of 6.5. The treatment solution contained 1.6 % (v/v) DMSO, 0.1 % (v/v) Tween® 20 and 2',3',4',3,4-Pentahydroxychalcone at a concentration of 2 mM. The control treatment contained 1.6 % (v/v) DMSO, 0.1 % (v/v) Tween® 20. Each leaf disc was treated with 1.5 µL solution placed on top of the leaf discs. Plates were sealed with Parafilm and placed into a climate cabinet with 12h/12h day/night-length and a temperature of 22°C at a light intensity of 130 µmol m-2 s-1. 96 hours after treatment, chlorophyll fluorescence measurements were performed on leaf discs using an Imaging PAM M-Series fluorescence camera (Heinz Walz GmbH, Effeltrich, Germany). Leaf discs were dark adapted for 30 minutes, minimum and maximum chlorophyll fluorescence were obtained and leaf discs were illuminated for 30 minutes

[7] = test system: B. napus; test: Chlorophyll fluorescence measurements, B. napus; assay type: in vivo, Brassica napus; conditions: 2 mM
[8] = estimate valid for both measurement days (before and one day after treatment)

O=C(/C=C/c1ccc(O)c(O)c1)c1ccc(O)cc1O [Compound 8, 2′,4′,3,4-Tetrahydroxy-chalcone]
Kd [1]: 0.38 µM
Kd [2]: 8.6 µM

O=C(/C=C/c1cc(O)c(O)c(O)c1)c1ccc(O)cc1O [Compound 9, 2′,4′,3,4,5-Pentahydroxychalcone]
Kd ([1]; ITC, wild-type (wtFt), no aspartate, read-out: Kd): 0.46 µM
Kd [2]: 4.8 µM

O=C(/C=C/c1ccccc1)c1ccc(O)c(O)c1O [Compound 10, 2′,3′,4′-Trihydroxychalcone]
antiproliferative IC50 relative to IC50 for inhibition of C4 PEPC [3]: ~ 5 fold

O=C(/C=C/c1ccc(O)c(O)c1)c1ccc(O)c(O)c1O [Compound 12, 2′,3′,4′,3,4-Pentahydroxy-chalcone]
Kd [1]: 0.26 µM
weaker Kd at 0.5 mM aspartate in comparison to no aspartate ([1]; ITC): ~ 5 fold
Kd [2]: 5.4 µM
Maximal PEP carboxylation rate (Vpmax) ([4]; Before treatment): 36.5 μmol m^−2 s^−1
Maximal PEP carboxylation rate (Vpmax) ([4]; Before treatment, listed as Okanin): 36.5 (3.96) μmol m^−2 s^−1
Maximal PEP carboxylation rate (Vpmax) ([4]; One day after treatment): 17.2 μmol m^−2 s^−1
Maximal PEP carboxylation rate (Vpmax) ([4]; One day after treatment, listed as Okanin): 17.2 (2.43) μmol m^−2 s^−1
decrease of Vpmax ([4]; one day after treatment): more than 50%
photosynthetic parameters ([5]; after treatment): no changes
maximal electron transport rate (Jmax) [5, 8]: 144.2 (3.77)
maximal rubisco carboxylation rate (Vcmax) [5, 8]: 81.5 (3.33)
mitochondrial respiration (Rd) [5, 8]: 0.9 (0.66)
effective quantum yield of photosystem II [6]: increased
maximum electron transfer rate [6]: increased
non-photochemical quenching [6]: reduced
photosynthetic parameters [7]: no effect
